# Test results reported in patent US20230271941A1, “COMPOUNDS AND COMPOSITIONS FOR TREATING CONDITIONS ASSOCIATED WITH STING ACTIVITY” (IFM Due, Inc., priority 2020, published 2023).
# Target: T1, hSTING (Homo sapiens, UniProt Q86WV6, G230A/H232R/R293Q/R71H)
# T1 construct: host or cells: THP1-Dual KO-IFNAR2 cells
# Experiment: STING reporter assay: THP1-Dual KO-IFNAR2 cells stimulated with 2′3′cGAMP, luciferase reporter activity
# Format: cell-based
# Details: 15 μM 2′3′cGAMP transfected with Lipofectamine 2000, 24 h, luciferase reporter (QUANTI-Luc)
# Procedure: STING pathway activation by the compounds described herein was measured using THP1-Dual™ cells (KO-IFNAR2).
# THP1-Dual™ KO-IFNAR2 Cells (obtained from invivogen) were maintained in RPMI, 10% FCS, 5 ml P/S, 2 mM L-glut, 10 mM Hepes, and 1 mM sodium pyruvate. Compounds were spotted in empty 384 well tissue culture plates (Greiner 781182) by Echo for a final concentration of 0.0017-100 μM. Cells were plated into the TC plates at 40 μL per well, 2×10E6 cells/mL. For activation with STING ligand, 2′3′cGAMP (MW 718.38, obtained from Invivogen), was prepared in Optimem media.
# The following solutions were prepared for each 1×384 plate: • Solution A: 2 mL Optimem with one of the following stimuli: • 60 μL of 10 mM 2′3′cGAMP→150 μM stock • Solution B: 2 mL Optimem with 60 μL Lipofectamine 2000→Incubate 5 min at RT
# 2 mL of solution A and 2 ml Solution B was mixed and incubated for 20 min at room temperature (RT). 20 μL of transfection solution (A+B) was added on top of the plated cells, with a final 2′3′cGAMP concentration of 15 μM. The plates were then centrifuged immediately at 340 g for 1 minute, after which they were incubated at 37° C., 5% CO2, >98% humidity for 24 h. Luciferase reporter activity was then measured. EC50 values were calculated by using standard methods known in the art.
# Luciferase reporter assay: 10 μL of supernatant from the assay was transferred to white 384-plate with flat bottom and squared wells. One pouch of QUANTI-Luc™ Plus was dissolved in 25 mL of water. 100 μL of QLC Stabilizer per 25 mL of QUANTI-Luc™Plus solution was added. 50 μL of QUANTI-Luc™ Plus/QLC solution per well was then added. Luminescence was measured on a Platereader (e.g., Spectramax I3X (Molecular Devices GF3637001)).
# Luciferase reporter activity was then measured. EC50 values were calculated by using standard methods known in the art.
# T1 sequence (Q86WV6 whole entry R71H/G230A/H232R/R293Q): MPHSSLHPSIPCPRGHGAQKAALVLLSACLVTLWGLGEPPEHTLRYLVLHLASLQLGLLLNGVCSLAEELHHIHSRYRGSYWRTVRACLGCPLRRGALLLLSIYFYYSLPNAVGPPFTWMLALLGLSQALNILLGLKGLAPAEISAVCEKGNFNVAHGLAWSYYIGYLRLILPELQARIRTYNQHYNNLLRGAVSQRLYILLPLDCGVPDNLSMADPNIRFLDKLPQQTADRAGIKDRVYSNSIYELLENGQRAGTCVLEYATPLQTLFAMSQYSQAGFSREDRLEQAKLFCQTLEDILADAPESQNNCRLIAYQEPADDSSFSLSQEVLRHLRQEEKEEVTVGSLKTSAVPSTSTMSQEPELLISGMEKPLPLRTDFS
row,EC50 [nM],SMILES
1,200 to 1000,"CC(C)n1cc(-c2ccc3[nH]cc(NC(=O)c4ccn(Cc5ccc(C(F)(F)F)cc5)n4)c3c2)cn1 [Compound 133, N-(5-(1-isopropyl-1H-pyrazol-4-yl)-1H-indol-3-yl)-1-(4-(trifluoromethyl)benzyl)-1H-pyrazole-3-carboxamide]"
2,200 to 1000,"CC(C)n1cc(-c2ccc3[nH]cc(NC(=O)c4cn(-c5ccc(C(F)(F)F)cc5)cn4)c3c2)cn1 [Compound 139, N-(5-(1-isopropyl-1H-pyrazol-4-yl)-1H-indol-3-yl)-1-(4-(trifluoromethyl)phenyl)-1H-imidazole-4-carboxamide]"
3,5000 to 100000,"O=C(Nc1c[nH]c2cc(F)c(F)cc12)c1cc(-c2cccnc2)[nH]n1 [Compound 119, N-(5,6-difluoro-1H-indol-3-yl)-5-(pyridin-3-yl)-1H-pyrazole-3-carboxamide]"
4,200 to 1000,"CC(C)n1cc(-c2ccc3[nH]cc(NC(=O)c4cn(Cc5ccc(C(F)(F)F)cc5)cn4)c3c2)cn1 [Compound 138, N-(5-(1-isopropyl-1H-pyrazol-4-yl)-1H-indol-3-yl)-1-(4-(trifluoromethyl)benzyl)-1H-imidazole-4-carboxamide]"
5,1000 to 5000,"O=C(Nc1c[nH]c2cc(F)c(F)cc12)c1csc(-c2ccccc2)n1 [Compound 111, N-(5,6-difluoro-1H-indol-3-yl)-2-phenyl-1,3-thiazole-4-carboxamide]"
6,200 to 1000,"CC(C)n1cc(-c2cc(F)c3[nH]cc(NC(=O)c4cnn(Cc5ccc(C(F)(F)F)cc5)c4)c3c2)cn1 [Compound 146, N-(7-fluoro-5-(1-isopropyl-1H-pyrazol-4-yl)-1H-indol-3-yl)-1-(4-(trifluoromethyl)benzyl)-1H-pyrazole-4-carboxamide]"
7,200 to 1000,"O=C(Nc1c[nH]c2cc(F)c(Cl)cc12)c1cc(Cc2ccc(C(F)(F)F)cc2)n(C(F)F)n1 [Compound 166, N-(5-chloro-6-fluoro-1H-indol-3-yl)-1-(difluoromethyl)-5-(4-(trifluoromethyl)benzyl)-1H-pyrazole-3-carboxamide]"
8,200 to 1000,"O=C(Nc1c[nH]c2cc(F)c(F)cc12)c1cc(Cc2ccc(C(F)(F)F)cc2)on1 [Compound 153, N-(5,6-difluoro-1H-indol-3-yl)-5-(4-(trifluoromethyl)benzyl)isoxazole-3-carboxamide]"
9,200 to 1000,"O=C(Nc1c[nH]c2cc(F)c(F)cc12)c1csc(-c2cccc(C(F)(F)F)c2)n1 [Compound 101, N-(5,6-difluoro-1H-indol-3-yl)-2-(3-(trifluoromethyl)phenyl)thiazole-4-carboxamide]"
10,5000 to 100000,"O=C(Nc1c[nH]c2ccccc12)c1cn(-c2cnc(OCC(F)(F)F)c(F)c2)nn1 [Compound 157, 1-(5-fluoro-6-(2,2,2-trifluoroethoxy)pyridin-3-yl)-N-(1H-indol-3-yl)-1H-1,2,3-triazole-4-carboxamide]"

row,SMILES,EC50 [nM]
1,"COc1ccc2[nH]cc(NC(=O)c3cnn(Cc4ccc(C(F)(F)F)cc4)c3)c2n1 [Compound 118, N-(5-methoxy-1H-pyrrolo[3,2-b]pyridin-3-yl)-1-(4-(trifluoromethyl)benzyl)-1H-pyrazole-4-carboxamide]",1000 to 5000
2,"CC(c1ccc(C(F)(F)F)cc1)n1cc(C(=O)Nc2c[nH]c3cc(F)c(F)cc23)cn1 (single isomer, unassigned) [Compound 120, (R or S)-N-(5,6-difluoro-1H-indol-3-yl)-1-(1-(4-(trifluoromethyl)phenyl)ethyl)-1H-pyrazole-4-carboxamide]",200 to 1000
3,"O=C(Nc1c[nH]c2cc(F)c(Cl)cc12)c1cn(Cc2ccc(C(F)(F)F)cc2)nn1 [Compound 168, N-(5-chloro-6-fluoro-1H-indol-3-yl)-1-(4-(trifluoromethyl)benzyl)-1H-1,2,3-triazole-4-carboxamide]",200 to 1000
4,"O=C(Nc1c[nH]c2c(F)cncc12)c1cnn(Cc2ccc(C(F)(F)F)cc2)c1 [Compound 128, N-(7-fluoro-1H-pyrrolo[3,2-c]pyridin-3-yl)-1-(4-(trifluoromethyl)benzyl)-1H-pyrazole-4-carboxamide]",200 to 1000
